row,Structure (SMILES),melting point [°C]
1,Cc1cc(S(F)(F)(F)(F)F)ccc1N,65 to 66
2,CC(C)CC1CC(=O)c2cc(CC(=O)O)ccc21 (configuration not stated),140 to 142
3,CN(CCCSCCCC(F)(F)C(F)(F)F)CCOc1ccc(C2=C(c3ccccc3)CCCc3cc(O)ccc32)cc1,40 to 42
4,CCOC(=O)c1c[nH]c2oc3ccccc3c(=O)c2c1=O,174 to 175
5,N#CC1(c2ccccc2)CCN(Cc2ccccc2)CC1,73 to 74
6,COC(=O)C1=C(C)NC(C)=C([N+](=O)[O-])C1c1cccc2ncc(-c3ccccc3)cc12 (configuration not stated),262
7,CSc1ccc(-c2nnc(Cl)cc2-c2ccc(Cl)cc2)cc1,145 to 146
8,CC(C)CCCC(C)C1CCC2C3CC=C4CC(N)CCC4(C)C3CCC12C (configuration not stated),92 to 94
9,CC(C)OC(=O)c1nn(-c2ccc(Cl)cc2)c(=O)c2c(N)scc12,118 to 120
10,O=c1c(Cc2ccccc2)cn2c3ccc(Cl)cc3c3cc(Cl)cc1c32,206 to 209
11,C#CC1(O)CCC2C3CCC4=CC(=O)CCC4C3C(=CF)CC21C (configuration not stated),188 to 190
12,OCCN1CCN(Cc2nnc3n2-c2ccc(Cl)cc2C(c2ccccc2)=NC3)CC1,113 to 118
13,COc1cc2oc(=O)c3c(c2cc1[N+](=O)[O-])CCN(CC(C)=O)C3,222 to 225
14,CN1CCN(C(=NS(=O)(=O)c2ccc(F)cc2)N2CC(c3ccccc3)C(c3cccnc3)=N2)CC1 (configuration not stated),169 to 170
15,O=C(c1cn(C(c2ccccc2)(c2ccccc2)c2ccccc2)cn1)c1cc(Cl)cc2c1OCOC2,175 to 182
16,CCOC(=O)c1cc(C)nc2sc(C(N)=O)c(N)c12,205 to 208
17,O=C(O)Cc1cc(Cl)ccc1OCCCc1ccccc1,95 to 96.5
18,O=C(N[C@H]1CCc2c(F)cc(F)cc2C1)C(F)(F)F,160 to 161
19,O=C(O)CCON=c1c2nccc3cccc(c32)n2cccc12,250
20,CC(=O)SCCC(=O)N(C)c1nnc(-c2cccnc2)s1,133 to 135

row,Structure (SMILES),melting point [°C]
1,Cc1nn(-c2cc(OC(C)C(=O)NS(C)(=O)=O)c(Cl)cc2Cl)c(=O)n1C(F)F (configuration not stated),185 to 188
2,CCOC(=O)COc1cc(F)ccc1C(=O)NCc1cccc([N+](=O)[O-])c1,78 to 80
3,COc1cc(OC)nc(NS(=O)(=O)c2ccccc2N(C)S(C)(=O)=O)n1,228 to 230
4,Cc1nc(-c2cc(C#N)c(=O)[nH]c2C)cs1,305 to 307
5,OCC1COC(c2c(F)cccc2F)=N1 (configuration not stated),82
6,CCCCCCCCCCCCc1c2c(=O)c3ccccc3c2c(CCCCCCCCCCCC)c2c(=O)c3ccccc3c12,123 to 124
7,CCOC(=O)c1cnc2nc(SCc3ccccc3)nn2c1C,98 to 99
8,Cn1cc(CN2CCC[C@H]2CO)c2ccccc21,46 to 48
9,CCn1nc2c(cc1=O)CCSc1sc(Br)cc1-2,149 to 151
10,CCNC(=O)NC1CCCc2sccc21 (configuration not stated),184 to 188
11,O=C(ON1C(=O)CCC1=O)c1ccccc1,178
12,COc1cc(OC)nc(NC(=O)NS(=O)(=O)N=CN(CSC)OC)n1,165 to 167
13,C=CCN(CC=C)C(=O)C(C#N)(CC)c1ccccc1 (configuration not stated),33 to 35
14,O=c1[nH]cccc1CO,203 to 205
15,CCCCCCCNC(=O)Oc1ccc2ncccc2c1,78
16,Cc1nn(CC(=O)c2ccc(Cl)cc2)c(=O)n1-c1ccc(N2CCN(c3ncc(O)cn3)CC2)cc1,225
17,OCCc1cccc(Nc2ccc3nc(N[C@@H]4CCc5ccccc54)ccc3c2)c1,109
18,CCOC(=O)c1ccccc1N(CC(=O)OC(C)(C)C)C(=O)CN1C(=O)c2ccccc2C1=O,127
19,CCOC(=O)C(=CN(C)C)C(=O)c1cc(F)c(Cl)cc1Cl,94 to 95
20,COc1cc(O)c(-c2ccccc2)nn1,204 to 209

row,Structure (SMILES),melting point [°C]
1,COc1cc2c(cc1OC)-c1c(-c3nc(C)no3)c(-c3cc(C)c(O)c(C)c3)c(C)n1CC2,218 to 221
2,CCOC(=O)c1cn(NCC(=O)OC)c2cc3c(cc2c1=O)OCO3,142 to 145
3,Cc1oc(-c2ccccc2)nc1COc1ccc(O)cc1,168 to 169
4,COc1cccc(-c2cnn3c(-c4cccc(NC(=O)CC(C)C)c4)ccnc23)c1,153 to 154
5,COc1ccc2cc(C(=O)CCCCC(=O)N(C)O)ccc2c1,116 to 118
6,CN(CCCCOCC(=O)O)c1nnc(-c2ccccc2)c(-c2ccccc2)n1,108 to 110
7,O=C(COc1cccc(C(=O)O)c1)NCCNC(=O)COc1cccc(C(=O)O)c1,282
8,CN1CCn2c1nc(N1CCc3ccccc3CC1)c(C#N)c2=O,174 to 177
9,CCCC(C)Nc1c([N+](=O)[O-])cc(S(C)(=O)=O)c(C)c1[N+](=O)[O-] (configuration not stated),85 to 88
10,N#Cc1c(Br)[nH]c(-c2ccccc2)c1C#N,225 to 258
11,Clc1ccc(NN=Cc2cccnc2)cc1,186
12,CC(C)(C)N(NC(=O)c1cncc(Br)c1)C(=O)c1ccc(Cl)cc1,193 to 197
13,COc1ccc(C(=O)c2c(O)c3ccccc3[nH]c2=O)cc1OC,235 to 236
14,COc1cc(C)c(C(=O)c2c(Cl)cccc2Cl)c(OC(=O)Cc2ccccc2)c1OC,106
15,NC(=NOCC1CC1)c1c(F)cccc1C(F)(F)F,63 to 64
16,Cc1ccc(O)cc1C=O,116 to 118
17,Cc1[nH]n(Cc2ccc(C(N)=O)cc2)c2nc(-c3ccncc3)nc(=O)c1-2,> 300
18,CC(=O)OCNC(=O)c1cc(Cl)nc(Cl)c1,94 to 95
19,O=C1C(=O)N(Cc2ccc(O)cc2)c2ccc(S(=O)(=O)N3CCC[C@H]3COc3ccccc3)cc21,170 to 172
20,COC(CN(C(=O)C(C)C)C(C(=O)O)c1ccccc1)OC (configuration not stated),147 to 149

# The next lines start with the values.
row,melting point [°C],Structure (SMILES)
1,38 to 40,O=[N+]([O-])c1cc(OCc2ccccc2)ccc1CCCl
2,37 to 38,COC(=O)CCCCCCCCCC1=C(C)C(=O)C(OC)=C(OC)C1=O
3,128 to 131,O=c1cc(C(F)(F)F)nc(Cl)n1-c1cc(Oc2ccccc2[N+](=O)[O-])c(Cl)cc1F
4,280,CC1(C)OC(=C(C#N)C#N)C(C#N)=C1c1ccc(-n2cc(-c3ccccc3)nn2)cc1
5,75 to 78,CNC(=O)C(Cc1c[nH]c2ccccc12)NC(=O)C(C)(CC(C)C)c1ccc(Cl)cc1S (configuration not stated)
6,150 to 151,COC(=O)c1cc2c3ccccc3n(C(=O)c3ccccc3)c2s1
7,187 to 189,COC(=O)NCCCCC(NC(=O)OC)C(=O)OC (configuration not stated)
8,105 to 108,Cc1c(SCCCN2CCNCC2)ccnc1CNc1cnc2ccccc2c1
9,192 to 194,CCC1c2ccc(C=O)n2-c2ccc(F)cc2N1S(=O)(=O)c1ccc(O)c(C)c1 (configuration not stated)
10,96 to 98,COC(=O)COc1ccc(OCC(=O)OC)cc1
11,146 to 147,CC(C)Nc1c(-c2ccc(S(C)(=O)=O)cc2)cnn(Cc2ccccc2)c1=O
12,132 to 135,C[C@@H](N(CC(=O)O)C(=O)c1ccc(C(F)(F)F)cc1)[C@](O)(Cn1cncn1)c1ccc(F)cc1F
13,83 to 87,CCOC(=O)c1ccc2c(c1)sc1ccc(C)cc12
14,211 to 212,C=CCNc1nc(NCCC)c2cc([N+](=O)[O-])ccc2n1
15,258 to 261,Clc1ccc(Nc2nnc(Cc3ccncc3)c3c2CCCC3)cc1
16,62 to 64,CC(=O)OC(C)C=C(C)c1ccc(-c2ccccc2)cc1 (configuration not stated)
17,64 to 65,COC(=O)C1(CCCCl)Sc2cc(OC)ccc2OCC1=O (configuration not stated)
18,154 to 157,Oc1ccccc1C=Nc1ccc(O)c2ccccc12
19,288 to 290,Cc1nc2c(N)nc3ccccc3c2n1C
20,187 to 190,O=C1c2ccccc2C(=O)N1C1CCN(CCCc2c[nH]c3ccccc23)CC1
21,217 to 219,COCCc1sc2ncnc(N)c2c1-c1ccc(N(C(N)=O)c2ccccc2C)cc1

row,melting point [°C],Structure (SMILES)
1,119 to 124,COc1ccccc1-c1ccc(C(=O)N2Cc3ccc(C(=O)NCc4cccnc4)n3Cc3ccccc32)cc1C
2,178 to 180,CCOC(=O)Cc1ccc(NC(=O)C(COc2ccccc2)NS(=O)(=O)c2ccc(I)cc2)cc1 (racemic)
3,148 to 149,O=C(O)CCCc1ccc(-c2ccccc2Br)cc1
4,78 to 80,COc1ccc2c(c1)c(CCl)nn2Cc1ccccc1
5,182,COc1ccccc1-c1ccc2ccc(N)nc2n1
6,118 to 119,CC(C)(C)[Si](C)(C)Oc1ccc2c(c1)oc(=O)c1c3ccc(O[Si](C)(C)C(C)(C)C)cc3oc21
7,95 to 97,O=S(=O)(c1ccc(Br)cc1)N1C=CC=NC=C1
8,154 to 155,N#CCC1(C#N)CCC(=O)CC1
9,102 to 104,CCCN(CCC)Cc1ccccc1P(=NC(=O)OCC)(c1ccccc1)c1ccccc1
10,124 to 127,O=c1cccc(-c2ccccn2)[nH]1
11,89 to 90,CC(C)c1nn(-c2nnc(C(F)(F)F)s2)cc1CCCO
12,> 230,COC(=O)c1ccc(S(=O)(=O)n2c(=O)[nH]c3cc(Cl)ccc3c2=O)cc1
13,89 to 91,CC=CCSc1cc(C(=O)O)cc(S(N)(=O)=O)c1-c1ccccc1
14,> 260,N#Cc1cnc2c(Br)cccc2c1O
15,160 to 162,CC1CC=C(Nc2ccccc2)c2ncc(C(=O)O)c(=O)n21 (configuration not stated)
16,228 to 230,COc1ccc(Nc2cccc3c2C(=O)N(C2CCC(=O)NC2=O)C3=O)cc1 (configuration not stated)
17,115 to 117,O=C1CC2Sc3nc4ccccc4n3C2(c2ccc(Cl)cc2)O1 (configuration not stated)
18,157 to 161,COC(=O)CCc1cc2cc(Cl)ccc2n1S(=O)(=O)c1cccc2cccnc12
19,222 to 225,Cn1cc(C(=O)NCc2ccc(Cl)cc2)c(=O)c2cc(CO)sc21
20,79 to 80.5,CCN(CC)CCOc1cccc2c1c1ccccc1n2Cc1ccccc1
21,65 to 67,CC(O)CN1C(=O)N(CC(C)O)C(C)(C)C1=O (configuration not stated)

# — a melting point compilation (Tetko et al.; mined from patent text by program, amines drawn as free bases though some values may be those of a salt)
